Measured values reported in patent publication US6713280B1, “Enhancement of peptide cellular uptake” (Thomas Jefferson University, priority 1999, dated 2004).
Residues, ends and D or L forms follow the SMILES beside them. *: point of attachment. Decanoyl = CCCCCCCCCC(=O)*

Columns and labels:
[1] = test system: HL-60 cells transfected with Bcl-2 to overexpress Bcl-2; test: DNA fragmentation apoptosis assay; type: cell-based, human; settings: 50 μM, 2 hours, Bcl-2-transfected HL-60 cells, FIG. 6
GST-Bcl-2 protein = GST-Bcl-2 protein (Homo sapiens, UniProt P10415); test: Fluorescence polarization competition binding assay of decyl-SEQ ID NO:56 to GST-Bcl-2
GST-Bcl-2 protein, sequence (P10415 1-205 limits assumed): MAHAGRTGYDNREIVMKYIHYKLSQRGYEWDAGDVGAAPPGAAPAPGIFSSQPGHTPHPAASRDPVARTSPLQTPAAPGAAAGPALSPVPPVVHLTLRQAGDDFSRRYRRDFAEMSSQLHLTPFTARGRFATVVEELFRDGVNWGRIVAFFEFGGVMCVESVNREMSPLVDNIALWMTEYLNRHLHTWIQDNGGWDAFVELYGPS
Method: The binding equation proposed by Weinhold et al., J. Am. Chem. Soc. 114:9270-9275, 1992, was used to derive the dissociation constant KD of an inhibitor from petition inhibition curve, [formula]
The Ec50 for the Bcl-2 binding of decyl-SEQ ID NO:56 was 0.13 μM, indicating strong binding.
The binding of the peptide conjugate decyl-SEQ ID NO:56 to the Bcl-2 protein was assayed by the following competition assay. […] The following micromolar concentrations of decyl-K1285 were then incubated with the mixture for 30 minutes at 37° C. (0.005, 0.01, 0.02, 0.04 0.08 0.16 and 0.32).

[2] = test system: HL-60 cell line (parent line); settings: 50 μM, parent HL-60 line; cited from earlier work
[3] = test system: Bcl-2-transfected HL-60 line; settings: 50 μM (same concentration); cited from earlier work
Bcl-2 protein = Bcl-2 protein (Homo sapiens, UniProt P10415); test: Fluorescence polarization competition binding against Flu-SEQ ID NO:30 (BH3 peptides); settings: FIG. 3; for inhibition of Bcl-2 binding of Flu-SEQ ID NO:30: competition curve; for relative competition to Flu-SEQ ID NO:30 binding: comparison among BH3 peptides
Bcl-2 protein, sequence (P10415 whole entry): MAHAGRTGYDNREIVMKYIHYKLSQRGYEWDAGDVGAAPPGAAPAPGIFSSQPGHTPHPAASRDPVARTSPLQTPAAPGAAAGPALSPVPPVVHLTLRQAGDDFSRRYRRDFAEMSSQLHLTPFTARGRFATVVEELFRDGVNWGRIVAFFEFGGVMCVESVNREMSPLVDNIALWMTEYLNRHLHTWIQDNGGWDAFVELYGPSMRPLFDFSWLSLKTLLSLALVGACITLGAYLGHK

Compound	DNA fragmentation (marker of apoptosis) [1]	inhibition of Bcl-2 binding of Flu-SEQ ID NO:30 (Bcl-2 protein)	further results
CCCCCCCCCC(=O)O [decanoic acid, reference compound]	observed in the decyl-SEQ ID NO:56-treated cells only		
CCCCCCCCCC(=O)N[C@@H](CCCCN)C(=O)N[C@@H](CC(N)=O)C(=O)N[C@@H](CC(C)C)C(=O)N[C@@H](Cc1c[nH]c2ccccc12)C(=O)N[C@@H](C)C(=O)N[C@@H](C)C(=O)N[C@@H](CCC(N)=O)C(=O)N[C@@H](CCCNC(=N)N)C(=O)N[C@@H](Cc1ccc(O)cc1)C(=O)NCC(=O)N[C@@H](CCCNC(=N)N)C(=O)N[C@@H](CCC(=O)O)C(=O)N[C@@H](CC(C)C)C(=O)N[C@@H](CCCNC(=N)N)C(=O)N[C@@H](CCCNC(=N)N)C(=O)N[C@@H](CCSC)C(=O)N[C@@H](CO)C(=O)N[C@@H](CC(=O)O)C(=O)N[C@@H](CCC(=O)O)C(=O)N[C@@H](Cc1ccccc1)C(=O)N[C@@H](CCC(=O)O)C(=O)NCC(=O)N[C@@H](CO)C(=O)N[C@@H](Cc1ccccc1)C(=O)N[C@@H](CCCCN)C(=O)NCC(=O)N[C@@H](CC(C)C)C(=O)O [decyl-SEQ ID NO:56] (Decanoyl-KNLWAAQRYGRELRRMSDEFEGSFKGL-OH; C-terminus assumed)	DNA fragmentation was observed		EC50 (GST-Bcl-2 protein): 130 nM
COc1cc([C@@H]2c3cc4c(cc3[C@@H](O[C@@H]3O[C@@H]5CO[C@@H](C)O[C@H]5[C@H](O)[C@H]3O)[C@H]3COC(=O)[C@H]23)OCO4)cc(OC)c1O [etoposide]			sensitivity of cells to the drug [2]: sensitive; sensitivity of cells to the drug [3]: resistant
GQVGRQMIIGDDINR (GQVGRQAAIIGDDINR) [SEQ ID NO:58, reference compound]		no significant effect	
KKLSECLKRIGDELDS [SEQ ID NO:32]		clear dose-dependent inhibition	relative competition to Flu-SEQ ID NO:30 binding (Bcl-2 protein): weaker activity
KNLWAAQRYGRELRRMSDEFEGSFKGL [SEQ ID NO:56]	observed in the decyl-SEQ ID NO:56-treated cells only		
NLWAAQRYGRELRRMSDEFEGSFKGL [SEQ ID NO:1]		clear dose-dependent inhibition	relative competition to Flu-SEQ ID NO:30 binding (Bcl-2 protein): strongest competition
